Test results taken from patent publication US11739053B2, “P62-ZZ chemical inhibitor” (ID4PHARMA, LLC, priority 2011, dated 2023).

Legend:
[1] = tested on: GFP-labeled human myeloma MM1.S cells; assay: GFP-labeled MM1.S myeloma cell growth with/without stromal cells, fluorescence microscopy; assay type: cell-based; conditions: 10 μM, 72 hours, FIG. 3
Experimental: FIG. 3 is a graph depicting MM cell growth inhibition. Data is shown as the mean±SD (n=5). *: P<0.01 compared to no-inhibitor cultures without stromal cells. **: P<0.01 compared to no-treatment co-cultured with stromal cells.
Compound 3 was tested for its capacity to block MM-stimulated signaling in marrow stromal cells, thereby resulting in less bone destruction and MM growth. The effects of the compound 3 on GFP-labeled MM1.S myeloma cell growth with/without stromal cells, IL-6 and VCAM-1 expression on stromal cells induced by TNF-α and OCL formation, and TNF-α induced PKCζ phosphorylation, the specific kinase enzyme activated p62-ZZ, were examined. GFP-labeled MM1.S myeloma cells or normal human CFU-GM, a source of OCL precursors, were then co-cultured with human stromal cells with the p62-ZZ inhibitor. The 10 μM of inhibitor compound 3 blocked MM cell growth by 90% compared to vehicle (0.1% DMSO). […] VCAM-1 expression and IL-6 production induced by TNF-α on stromal cells was blocked by 30% and 90% respectively compared to vehicle levels. Furthermore, TNF-α induced PKC, phosphorylation blocked was in stromal cells and MM1.S when pre-treated with this p62-ZZ inhibitory compound for 3 hours.
Primary human bone marrow stromal cells were maintained in 10% FCS-IMDM. Stromal cells (1.5×10^3 cells/well) were cultured one day prior to the start of co-culture. Green fluorescent protein (GFP)-labeled human myeloma MM1.S cells (7.5×10^3 cells/well) were then cultured with/without stromal cells in the presence or absence of the p62-ZZ inhibitors (#1-6) for 72 hours. MM cell growth was determined by fluorescence microscopy.

IL-6 production = assay: TNF-α induced IL-6 production by marrow stromal cells, ELISA; assay type: cell-based, human; conditions: normal human stromal cells, FIG. 5B
Experimental: FIG. 5A-B: 5A. VCAM-1 expression using Western blot analysis. Normal human stromal cells were cultured with/without TNF and p62-ZZ inhibitors (#1-6) for 48 hours. The cell lysates were collected and VCAM-1 expression was measured using an anti-VCAM-1 antibody (Santa Cruz). FIG. 5B. IL-6 production by human and mouse marrow stromal cells by ELISA. Normal human and mouse marrow stromal cells were cultured with/without TNFα and p62-ZZ inhibitors (#1-6) for 48 hours. The cell culture media were collected and IL-6 production measured using an IL-6 ELISA kit (R &D). Data are shown as the means (n=2).
Normal human or mouse marrow stromal cells were maintained in 10% FBS-IMDM and treated with p62-ZZ inhibitors (#1-6) for 3 hours. Then TNFα or vehicle was added for 48 hours. Cell lysates were collected and VCAM-1 expression measured by Western blot using an anti-VCAM-1 antibody (Santa Cruz). The culture media were collected and IL-6 production was measured using an IL-6 ELISA kit (R&D Company).

Row | Compound | MM cell growth (result in words) [1] | IL-6 production by TNF-α stimulated normal human stromal cells (result in words) (IL-6 production)
1 | OC[C@@H](O)[C@@H](O)[C@H](O)[C@H](O)C(/C=N/Nc1ccccc1)=N/Nc1ccccc1 [Compound 2] | directly blocked MM cell growth | blocked IL-6 production
2 | O=C(O)CNC(=O)c1ccc(NCc2oc(CO)c(CNc3ccc(C(=O)NCC(=O)O)cc3)c(=O)c2O)cc1 [Compound 4] | directly blocked MM cell growth | –
3 | CCOc1ccccc1/C=N/Nc1ccc(S(=O)(=O)c2ccc(N/N=C/c3ccccc3OCC)cc2)cc1 [Compound 5] | – | blocked IL-6 production
